Source: patent US5270334A, “4-methoxy-5-methyl-pyran-3-ol natural products and derivatives thereof” (E. R. Squibb & Sons, Inc., priority 1992, dated 1993)

What was measured:
[1] = system: yeasts and fungi; assay: activity against a variety of yeasts and fungi (general statement); assay type: cell-based; settings: in words
[2] = system: cytochrome P450 enzymes, such as lanosterol demethylase; assay: inhibition of cytochrome P450 enzymes (general statement); assay type: biochemical; settings: in words
[3] = molecular target: T1, lanosterol demethylase (Candida albicans, UniProt P10613); assay: inhibition of lanosterol demethylase, spectrophotometric carbon monoxide binding assay; settings: Candida albicans SGY677; read-out: concentration which gives 50% inhibition of carbon monoxide binding
T1 construct: endogenous in cells; host or cells: Candida albicans SGY677
Description: (§1) The inhibition of lanosterol demethylase was determined by two methods: the spectrophotometric carbon monoxide binding assay of Omura and Sato (J. Biol. Chem. 239:2370-2378, 1964) and by a radiolabeled metabolic assay.
Cells of Candida albicans, SGY677, were grown overnight without shaking at 30° C. in a medium consisting of yeast extract 1%, peptone 2%, glucose 2% and distilled water. Cells were harvested by centrifugation and resuspended in 0.65M mannitol to an optical density at 600 nm of 2.5. At this density 1 ml of cells was equal to 6.7 mg constant dry weight (105° C. for 18 hours).
Scopularin and its alcohol derivative of Example 4 were added to the enzyme and the inhibition of carbon monoxide binding determined over a range of inhibitor concentrations.

[4] = molecular target: T2, lanosterol demethylase of Candida albicans (Candida albicans, UniProt P10613); assay: inhibition of lanosterol demethylase, radiolabeled metabolic assay (14C-acetate, lanosterol accumulation); assay type: cell-based; settings: Candida albicans SC5314, 14C-acetate, 30°
T2 construct: 14C-acetate sterol labelling, TLC
Description: as §1
The ability of scopularin and its alcohol to inhibit the lanosterol demethylase of Candida albicans can also be visualized by a metabolic assay. Candida albicans, SC5314, was grown overnight at 30° with shaking in the same medium as that used above. Cells were harvested by centrifugation and resuspended in water to give an optical density of 0.3 at 660 nm. 750 μl of this cell suspension, 300 μl of a medium containing 0.35 g Difco yeast nitrogen base without amino acids, 1 g glucose and distilled water to 10 ml, 100 μl of test material and distilled water were combined to give a final volume of 1.425 ml. This was incubated for 15 minutes at 30° C. with shaking, then 3 μCi ^14 C-acetate was added and continued to incubate for 1 hour. Cells were harvested by centrifugation and extracted with 2×0.5 ml methanol; centrifuged, decanted supernate and repeated the extraction with […] methanol-benzene (1:1). Centrifuged, decanted; combined supernates, dried and resuspended in 100 μl chloroform-methanol (1:1). The aliquots were spotted onto silica gel 60 (Merck) plates and developed chromatographically in a solvent containing dichloromethane-acetone (60:1). […]

T2 sequence (P10613 whole entry): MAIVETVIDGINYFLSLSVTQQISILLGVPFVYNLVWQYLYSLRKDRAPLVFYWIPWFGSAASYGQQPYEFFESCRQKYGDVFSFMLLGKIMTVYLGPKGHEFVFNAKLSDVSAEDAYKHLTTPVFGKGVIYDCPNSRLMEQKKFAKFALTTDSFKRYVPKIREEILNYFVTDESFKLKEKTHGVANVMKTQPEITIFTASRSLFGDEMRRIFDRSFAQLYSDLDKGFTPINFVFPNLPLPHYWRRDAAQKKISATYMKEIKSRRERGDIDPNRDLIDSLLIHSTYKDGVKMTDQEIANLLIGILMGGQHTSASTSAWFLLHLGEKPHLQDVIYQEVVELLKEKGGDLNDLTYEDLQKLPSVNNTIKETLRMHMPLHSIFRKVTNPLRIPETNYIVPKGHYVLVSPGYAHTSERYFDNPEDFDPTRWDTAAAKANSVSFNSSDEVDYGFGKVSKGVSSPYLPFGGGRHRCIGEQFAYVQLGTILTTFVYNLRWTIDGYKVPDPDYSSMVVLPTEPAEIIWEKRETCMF
T1 sequence (P10613 whole entry): as above

Structure (SMILES)	activity against a variety of yeasts and fungi [1]	inhibition of cytochrome P450 enzymes, such as lanosterol demethylase [2]	IC50 [3]	concentration causing accumulation of lanosterol, consistent with inhibition of lanosterol demethylase [4]
C/C=C/C=C/C=C(\C)[C@@H]1OC[C@H](C)[C@H](OC)[C@H]1OC(=O)CN[C@@H]1O[C@H](CO)[C@@H](O)[C@H](O)[C@H]1O [Ic]	has activity	inhibit	–	–
CCC/C=C/C=C/C=C(\C)[C@H]1OC[C@@H](C)[C@@H](OC)[C@@H]1O (relative stereo) [Example 4]	–	inhibitor	14 µM	1.4×10^-6
